In patent US20220187282A1, “CARDIOMYOCYTE PROLIFERATION” (The Council of the Queensland Institute of Medical Research, priority 2019, published 2022):
Where two headings read alike, the source gives them in different places.

Legend:
Format in all cases: biochemical
kinases [1] = molecular target: kinases (Homo sapiens, UniProt Q9P286); conditions: PAK7 (KIAA1264) FRET-Z-Lyte SP; Test Conc(μM):ATP Conc(μM) 1:5
kinases [2] = molecular target: kinases (Homo sapiens, UniProt P42336)
kinases [3] = molecular target: kinases (Homo sapiens, UniProt Q7KZI7); conditions: MARK2 FRET-Z-Lyte SP; Test Conc(μM):ATP Conc(μM) 1:10
kinases [4] = molecular target: kinases (Homo sapiens, UniProt Q96RR4); conditions: CAMKK2 (Beta) FRET-Lantha SP; Test Conc(μM) 1
kinases (Homo sapiens, UniProt Q96RR4), sequence (Q96RR4 whole entry): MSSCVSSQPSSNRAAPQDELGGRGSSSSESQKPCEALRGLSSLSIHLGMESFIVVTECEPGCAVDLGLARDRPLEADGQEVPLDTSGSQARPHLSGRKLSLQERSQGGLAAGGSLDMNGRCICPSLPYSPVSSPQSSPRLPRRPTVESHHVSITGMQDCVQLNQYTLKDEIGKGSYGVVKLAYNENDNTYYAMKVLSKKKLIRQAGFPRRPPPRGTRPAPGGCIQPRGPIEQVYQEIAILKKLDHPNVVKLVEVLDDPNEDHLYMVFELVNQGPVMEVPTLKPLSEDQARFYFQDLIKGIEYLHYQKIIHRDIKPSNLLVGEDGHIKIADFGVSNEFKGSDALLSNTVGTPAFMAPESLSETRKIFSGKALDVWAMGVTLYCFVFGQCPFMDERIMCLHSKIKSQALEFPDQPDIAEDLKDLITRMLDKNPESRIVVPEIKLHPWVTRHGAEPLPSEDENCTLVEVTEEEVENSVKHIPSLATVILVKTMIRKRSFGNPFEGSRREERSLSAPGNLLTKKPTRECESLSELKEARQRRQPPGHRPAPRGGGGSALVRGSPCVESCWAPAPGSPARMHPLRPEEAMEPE

kinases [5] = molecular target: kinases (Homo sapiens, UniProt O75460); conditions: ERN1 FRET-Lantha SP; Test Conc(μM) 1
kinases [6] = molecular target: kinases (Homo sapiens, UniProt Q04771); conditions: ACVR1 (ALK2) FRET-Lantha SP; Test Conc(μM) 1
kinases (Homo sapiens, UniProt Q04771), sequence (Q04771 21-509): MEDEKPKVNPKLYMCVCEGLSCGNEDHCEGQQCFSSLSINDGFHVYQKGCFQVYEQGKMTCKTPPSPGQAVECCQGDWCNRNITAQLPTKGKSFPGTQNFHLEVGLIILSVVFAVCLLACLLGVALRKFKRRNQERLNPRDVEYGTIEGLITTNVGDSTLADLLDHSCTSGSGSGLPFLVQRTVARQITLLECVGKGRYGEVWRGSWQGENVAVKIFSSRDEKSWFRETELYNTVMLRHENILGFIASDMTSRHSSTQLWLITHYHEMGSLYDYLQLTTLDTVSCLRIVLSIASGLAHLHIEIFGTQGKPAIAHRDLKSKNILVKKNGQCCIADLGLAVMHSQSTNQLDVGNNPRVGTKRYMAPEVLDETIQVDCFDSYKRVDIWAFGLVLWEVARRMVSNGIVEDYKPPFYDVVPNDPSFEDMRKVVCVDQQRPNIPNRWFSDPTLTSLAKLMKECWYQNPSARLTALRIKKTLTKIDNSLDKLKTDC

kinases [7] = molecular target: kinases (Homo sapiens, UniProt Q8NE63); conditions: HIPK4 FRET-Z-Lyte SP; Test Conc(μM):ATP Conc(μM) 1:50
kinases [8] = molecular target: kinases (Homo sapiens, UniProt P17252); conditions: PRKCA (PKC alpha) Z-Lyte SP; Test Conc(μM):ATP Conc(μM) 1:25
kinases [9] = molecular target: kinases (Homo sapiens, UniProt Q9BXA7); conditions: STK22D (TSSK1) FRET-Z-Lyte SP; Test Conc(μM):ATP Conc(μM) 1:10
kinases [10] = molecular target: kinases (Homo sapiens, UniProt Q15418); conditions: RPS6KA1 (RSK1) FRET-Z-Lyte SP; Test Conc(μM):ATP Conc(μM) 1:5
kinases [11] = molecular target: kinases (Homo sapiens, UniProt P34947); conditions: GRK5 *Mn* FRET-Z-Lyte SP; Test Conc(μM):ATP Conc(μM) 1:5
kinases [12] = molecular target: kinases (Homo sapiens, UniProt Q96BR1); conditions: SGKL (SGK3) FRET-Z-Lyte SP; Test Conc(μM):ATP Conc(μM) 1:10
kinases [13] = molecular target: kinases (Homo sapiens, UniProt Q13464); conditions: ROCK1 FRET-Z-Lyte SP; Test Conc(μM):ATP Conc(μM) 1:5
kinases [14] = molecular target: kinases (Homo sapiens, UniProt Q08881); conditions: ITK FRET-Z-Lyte SP; Test Conc(μM):ATP Conc(μM) 1:5
kinases [15] = molecular target: kinases (Homo sapiens, UniProt P22455); conditions: FGFR4 *Mn* FRET-Z-Lyte SP; Test Conc(μM):ATP Conc(μM) 1:150
kinases [16] = molecular target: kinases (Homo sapiens, UniProt Q13873); conditions: BMPR2 FRET-Lantha SP; Test Conc(μM) 1
kinases [17] = molecular target: kinases (Homo sapiens, UniProt P51813); conditions: BMX FRET-Z-Lyte SP; Test Conc(μM):ATP Conc(μM) 1:100
kinases [18] = molecular target: kinases (Homo sapiens, UniProt Q2M2I8); conditions: AAK1 FRET-Lantha SP; Test Conc(μM) 1
kinases (Homo sapiens, UniProt Q2M2I8), sequence (Q2M2I8 whole entry): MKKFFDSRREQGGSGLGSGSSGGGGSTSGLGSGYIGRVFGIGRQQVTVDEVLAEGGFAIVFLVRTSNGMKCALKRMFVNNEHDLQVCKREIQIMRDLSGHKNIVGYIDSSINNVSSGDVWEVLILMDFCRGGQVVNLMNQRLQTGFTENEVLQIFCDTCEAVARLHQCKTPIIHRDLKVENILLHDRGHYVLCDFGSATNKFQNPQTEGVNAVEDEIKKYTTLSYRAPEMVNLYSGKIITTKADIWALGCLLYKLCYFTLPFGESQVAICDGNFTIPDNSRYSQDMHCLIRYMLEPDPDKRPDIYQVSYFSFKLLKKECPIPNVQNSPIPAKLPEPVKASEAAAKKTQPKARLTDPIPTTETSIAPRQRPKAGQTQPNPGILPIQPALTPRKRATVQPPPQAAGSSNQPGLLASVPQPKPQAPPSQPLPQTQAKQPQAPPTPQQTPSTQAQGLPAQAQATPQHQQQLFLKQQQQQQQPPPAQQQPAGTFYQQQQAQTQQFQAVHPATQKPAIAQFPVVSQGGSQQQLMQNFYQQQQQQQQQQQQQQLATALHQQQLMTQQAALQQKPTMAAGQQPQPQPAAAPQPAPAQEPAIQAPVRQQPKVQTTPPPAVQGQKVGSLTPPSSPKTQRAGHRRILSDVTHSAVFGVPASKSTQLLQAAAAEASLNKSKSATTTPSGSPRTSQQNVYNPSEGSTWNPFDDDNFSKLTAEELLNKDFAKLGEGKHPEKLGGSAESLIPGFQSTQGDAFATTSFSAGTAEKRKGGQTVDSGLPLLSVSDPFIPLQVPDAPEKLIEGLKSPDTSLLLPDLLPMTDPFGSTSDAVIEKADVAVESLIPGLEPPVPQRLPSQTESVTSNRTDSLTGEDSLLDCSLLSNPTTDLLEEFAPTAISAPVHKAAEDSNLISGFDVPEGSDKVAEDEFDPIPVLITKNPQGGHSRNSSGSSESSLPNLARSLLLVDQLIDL

kinases [19] = molecular target: kinases (Homo sapiens, UniProt O76039); conditions: CDKL5 FRET-Z-Lyte SP; Test Conc(μM):ATP Conc(μM) 1:500
kinases [20] = molecular target: kinases (Homo sapiens, UniProt P22694); conditions: PRKACB FRET-Lantha SP; Test Conc(μM) 1
kinases [21] = molecular target: kinases (Homo sapiens, UniProt Q9Y6M4); conditions: CSNK1G3 (CK1gamma3) Z-Lyte SP; Test Conc(μM):ATP Conc(μM) 1:5
kinases [22] = molecular target: kinases (Homo sapiens, UniProt Q00534); conditions: CDK6 Cyclin D1 FRET-Adapta SP; Test Conc(μM):ATP Conc(μM) 1:10
kinases [23] = molecular target: kinases (Homo sapiens, UniProt P17612); conditions: PRKACA (PKA) FRET-Z-Lyte SP; Test Conc(μM):ATP Conc(μM) 1:5
kinases [24] = molecular target: kinases (Homo sapiens, UniProt Q9HAZ1); conditions: CLK4 FRET-Lantha SP; Test Conc(μM) 1
kinases [25] = molecular target: kinases (Homo sapiens, UniProt P51955); conditions: NEK2 FRET-Z-Lyte SP; Test Conc(μM):ATP Conc(μM) 1:150
kinases (Homo sapiens, UniProt P51955), sequence (P51955 whole entry): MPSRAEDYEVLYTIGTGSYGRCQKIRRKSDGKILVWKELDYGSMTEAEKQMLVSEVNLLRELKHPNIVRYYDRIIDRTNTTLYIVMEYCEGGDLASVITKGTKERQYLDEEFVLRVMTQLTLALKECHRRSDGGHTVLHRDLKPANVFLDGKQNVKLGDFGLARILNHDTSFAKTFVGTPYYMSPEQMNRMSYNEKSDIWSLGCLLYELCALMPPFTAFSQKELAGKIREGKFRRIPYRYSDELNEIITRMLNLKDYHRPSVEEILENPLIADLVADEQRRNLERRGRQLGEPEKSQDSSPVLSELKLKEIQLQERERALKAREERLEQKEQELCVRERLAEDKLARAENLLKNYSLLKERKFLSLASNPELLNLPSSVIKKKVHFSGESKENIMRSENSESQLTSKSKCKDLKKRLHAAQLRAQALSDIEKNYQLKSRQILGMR

kinases [26] = molecular target: kinases (Homo sapiens, UniProt Q86V86); conditions: PIM3 FRET-Z-Lyte SP; Test Conc(μM):ATP Conc(μM) 1:1000
kinases [27] = molecular target: kinases (Homo sapiens, UniProt O14976); conditions: GAK FRET-Lantha SP; Test Conc(μM) 1
kinases [28] = molecular target: kinases (Homo sapiens, UniProt O15111); conditions: CHUK(IKK alpha) FRET-Adapta SP; Test Conc(μM):ATP Conc(μM) 1:10
[29] = PIK3CA/PIK3R1 FRET-Adapta SP, Test Conc(μM):ATP Conc(μM) 1:25
[30] = PIK3CA/PIK3R3 FRET-Adapta SP, Test Conc(μM):ATP Conc(μM) 1:10

kinases (Homo sapiens, UniProt P42336), sequence (P42336 whole entry): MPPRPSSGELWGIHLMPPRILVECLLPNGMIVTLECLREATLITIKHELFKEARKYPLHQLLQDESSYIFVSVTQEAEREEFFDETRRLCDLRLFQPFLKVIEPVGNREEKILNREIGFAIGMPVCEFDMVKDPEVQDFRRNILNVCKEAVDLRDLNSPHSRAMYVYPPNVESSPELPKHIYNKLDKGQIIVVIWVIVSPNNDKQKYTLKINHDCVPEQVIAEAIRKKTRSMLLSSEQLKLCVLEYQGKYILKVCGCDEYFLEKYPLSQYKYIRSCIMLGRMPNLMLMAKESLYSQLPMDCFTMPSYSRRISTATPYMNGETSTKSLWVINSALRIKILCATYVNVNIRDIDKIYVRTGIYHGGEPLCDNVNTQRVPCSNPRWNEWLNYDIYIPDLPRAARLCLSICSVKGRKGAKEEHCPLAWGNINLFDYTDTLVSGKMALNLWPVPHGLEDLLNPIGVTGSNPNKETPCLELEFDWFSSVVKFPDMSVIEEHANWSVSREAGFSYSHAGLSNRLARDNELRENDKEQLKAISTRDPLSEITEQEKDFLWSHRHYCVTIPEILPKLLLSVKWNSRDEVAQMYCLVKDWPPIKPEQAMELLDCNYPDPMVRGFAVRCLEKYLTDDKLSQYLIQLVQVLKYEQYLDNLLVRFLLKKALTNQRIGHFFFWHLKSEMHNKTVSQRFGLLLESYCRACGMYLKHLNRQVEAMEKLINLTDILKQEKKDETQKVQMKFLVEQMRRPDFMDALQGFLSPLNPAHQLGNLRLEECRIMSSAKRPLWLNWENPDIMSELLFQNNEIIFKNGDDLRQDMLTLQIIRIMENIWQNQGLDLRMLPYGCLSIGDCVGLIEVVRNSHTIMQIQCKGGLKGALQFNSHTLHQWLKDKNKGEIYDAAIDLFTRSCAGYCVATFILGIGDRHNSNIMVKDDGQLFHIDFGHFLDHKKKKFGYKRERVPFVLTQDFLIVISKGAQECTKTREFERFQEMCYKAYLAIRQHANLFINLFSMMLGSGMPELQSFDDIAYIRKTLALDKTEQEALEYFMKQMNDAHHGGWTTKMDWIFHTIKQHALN
kinases (Homo sapiens, UniProt Q9P286), sequence (Q9P286 whole entry): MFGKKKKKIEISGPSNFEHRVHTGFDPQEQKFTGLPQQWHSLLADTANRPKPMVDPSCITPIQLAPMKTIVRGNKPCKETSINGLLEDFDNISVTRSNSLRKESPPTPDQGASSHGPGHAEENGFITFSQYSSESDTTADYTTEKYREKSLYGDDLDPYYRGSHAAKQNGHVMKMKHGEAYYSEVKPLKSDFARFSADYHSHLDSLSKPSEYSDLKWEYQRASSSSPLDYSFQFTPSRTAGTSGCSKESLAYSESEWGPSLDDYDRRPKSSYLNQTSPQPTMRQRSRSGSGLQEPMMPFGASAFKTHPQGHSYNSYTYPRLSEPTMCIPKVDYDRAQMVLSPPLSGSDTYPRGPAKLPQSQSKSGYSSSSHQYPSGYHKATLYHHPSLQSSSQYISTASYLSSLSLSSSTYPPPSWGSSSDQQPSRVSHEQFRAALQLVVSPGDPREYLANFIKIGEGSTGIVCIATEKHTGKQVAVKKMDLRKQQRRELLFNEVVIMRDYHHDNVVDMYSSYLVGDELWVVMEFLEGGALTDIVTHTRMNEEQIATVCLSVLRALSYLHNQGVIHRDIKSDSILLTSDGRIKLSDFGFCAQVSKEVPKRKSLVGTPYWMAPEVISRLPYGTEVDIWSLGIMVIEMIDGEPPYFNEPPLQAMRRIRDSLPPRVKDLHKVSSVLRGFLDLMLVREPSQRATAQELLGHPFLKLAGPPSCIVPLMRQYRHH

| Compound | Mean Inhib (%) (kinases [1]) | Mean Inhib (%) (kinases [2]; [29]) | Mean Inhib (%) (kinases [2]; [30]) | Mean Inhib (%) (kinases [3]) | Mean Inhib (%) (kinases [4]) | Mean Inhib (%) (kinases [5]) | Mean Inhib (%) (kinases [6]) | Mean Inhib (%) (kinases [7]) | Mean Inhib (%) (kinases [8]) | Mean Inhib (%) (kinases [9]) | Mean Inhib (%) (kinases [10]) | Mean Inhib (%) (kinases [11]) | Mean Inhib (%) (kinases [12]) | Mean Inhib (%) (kinases [13]) | Mean Inhib (%) (kinases [14]) | Mean Inhib (%) (kinases [15]) | Mean Inhib (%) (kinases [16]) | Mean Inhib (%) (kinases [17]) | Mean Inhib (%) (kinases [18]) | Mean Inhib (%) (kinases [19]) | other results |
| --- | --- | --- | --- | --- | --- | --- | --- | --- | --- | --- | --- | --- | --- | --- | --- | --- | --- | --- | --- | --- | --- |
| Cc1ccc(NC(=O)c2ccnc(N3CCOCC3)c2)cc1Nc1ccnc(N2CC(C)OC(C)C2)n1 (stereo not shown) [compound 3] | 3.9% | 8.4% | −3.0% | 7.4% | −2.5% | −3.4% | 2.3% | −2.8% | 23.3% | 18.8% | 14.8% | 4.7% | 13.3% | 45.9% | 6.1% | 14.8% | −4.1% | 7.2% | 5.8% | 13.9% | Mean Inhib (%) (kinases [20]): 2.3%; Mean Inhib (%) (kinases [21]): 2.9%; Mean Inhib (%) (kinases [22]): −1.8%; Mean Inhib (%) (kinases [23]): 2.2%; Mean Inhib (%) (kinases [24]): 6.4%; Mean Inhib (%) (kinases [25]): −0.8%; Mean Inhib (%) (kinases [26]): −1.4%; Mean Inhib (%) (kinases [27]): 29.0%; Mean Inhib (%) (kinases [28]): −6.9% |
| Cc1cc(Oc2ccnc(Nc3ccc(S(N)(=O)=O)cc3)c2)c(-c2ccccn2)nc1C [compound 65] | 4.7% | 0.0% | 3.9% | 3.8% | −3.4% | 1.0% | 88.2% | 8.8% | −2.0% | 12.2% | 5.3% | 4.6% | 4.7% | 1.6% | −6.9% | −0.9% | 2.7% | 18.7% | 2.4% | 9.8% | Mean Inhib (%) (kinases [20]): 10.9%; Mean Inhib (%) (kinases [21]): 0.1%; Mean Inhib (%) (kinases [22]): 6.7%; Mean Inhib (%) (kinases [23]): −4.7%; Mean Inhib (%) (kinases [24]): 0.4%; Mean Inhib (%) (kinases [25]): 12.8%; Mean Inhib (%) (kinases [26]): −2.6%; Mean Inhib (%) (kinases [27]): 39.3%; Mean Inhib (%) (kinases [28]): −6.2% |
